# Measured values reported in US20130065818A1, “Arylamide Compounds And Compositions And Uses Thereof” (POLYMEDIX, priority 2006, published 2013).
# Where two headings read alike, the source gives them in different places.
# Key:
# Pseudomonas aeruginosa = experiment: MIC, 25 ocular isolates, broth microdilution (Example 8); type: cell-based
# In short: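 Broth microdilution in Mueller-Hinton broth, polypropylene plates, inoculum from 0.5 McFarland suspension diluted 0.05 ml into 5 ml; final test agent 64–0.0625 μg/ml (128–0.125 μg/ml for P. aeruginosa) in 0.01% acetic acid, 0.2% BSA diluent. Incubated 37° C overnight; MIC read visually as lowest concentration inhibiting visible growth.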
# S. aureus ATCC 27660 = experiment: MIC, control bacteria (Example 8); type: cell-based
# Experimental: • Mueller-Hinton Broth in tubes was inoculated with 25 ocular isolates of Staphylococcus aureus fluoroquinolone-susceptible, Staphylococcus aureus fluoroquinolone-resistant, Staphylococcus epidermidis (Coagulase-negative Staphylococcus) fluoroquinolone-susceptible, Staphylococcus epidermidis (Coagulase-negative Staphylococcus) fluoroquinolone-resistant, Pseudomonas aeruginosa and Serratia marcescens, plus two controls (Staphylococcus aureus and E. coli) and incubated at 37° C. overnight on a shaker set at 250 rpm.
# Control Bacteria—The two control bacteria (Staphylococcus aureus and E. coli) were treated as above.
# Control Bacteria Set #1—this set of control bacteria were treated as the Streptococcus pneumoniae, Streptococcus viridans and Moraxella species (including Moraxella catarrhalis) test isolates above; the control bacteria underwent the same conditions as the test Streptococcus pneumoniae, Streptococcus viridans and Moraxella species (including Moraxella catarrhalis) isolates. This set of control bacteria was to determine whether there was a difference in the MICs by performing the MIC determinations in 2% lysed horse red blood cells with the standard method performed in Mueller-Hinton broth.
# Control Bacteria Set #2—the control bacteria were added to 5 ml of Mueller-Hinton Broth without the 2% lysed horse red blood cells to achieve the standard inoculum concentration. This set of control bacteria is the normal control to determine whether the compounds are at the target MICs.
# Control Bacteria Set #1—this set of control bacteria were treated as the Haemophilus influenzae test isolates above; the control bacteria underwent the same conditions as the test Haemophilus influenzae isolates. This set of control bacteria is to determine whether there was a difference in the MICs by performing the MIC determinations in HTM broth with the standard method performed in Mueller-Hinton broth.
# Control Bacteria Set #2—the control bacteria were added to 5 ml of Mueller-Hinton Broth to achieve the standard inoculum concentration. This set of control bacteria is the normal control to determine whether the compounds are at the target MICs.
# Ninety μl of the bacterial suspensions was dispensed in each well from column 1 to column 12. Each bacterial isolate was placed in one row of a 96 well polypropylene plate containing the test agents. The plates were placed on shaker at 15 minutes at room temperature, and then incubated at 37° C. overnight. MICs were determined visually as the lowest concentration of drug that inhibits visible bacterial growth.
# [1] = Control Bacteria S. aureus ATCC 27660
smiles,measurement,setting,value
N=C(N)NCCCCC(=O)Nc1cc(C(F)(F)F)cc(NC(=O)c2cc(C(=O)Nc3cc(C(F)(F)F)cc(NC(=O)CCCCNC(=N)N)c3O[C@@H]3CCNC3)ncn2)c1O[C@@H]1CCNC1 [Oligomer 4],MIC50,"Pseudomonas aeruginosa; 25 isolates, Row 13",4 µg/mL
same,Range of MICs,"Pseudomonas aeruginosa; 25 isolates, Summary of Results, >128 was Replaced with 256",0.5 to 8 µg/mL
same,MIC,"Pseudomonas aeruginosa; Pseudomonas aeruginosa, 25 ocular isolates, read-out: Median MIC",4 µg/mL
same,MIC,"Pseudomonas aeruginosa; Pseudomonas aeruginosa, isolate 1—K1673, read-out: MIC",2 µg/mL
same,MIC,"Pseudomonas aeruginosa; Pseudomonas aeruginosa, isolate 2—K1668, read-out: MIC",2 µg/mL
same,MIC,"Pseudomonas aeruginosa; Pseudomonas aeruginosa, isolate 3—K1662, read-out: MIC",2 µg/mL
same,MIC,"Pseudomonas aeruginosa; Pseudomonas aeruginosa, isolate 4—K1657, read-out: MIC",2 µg/mL
same,MIC,"Pseudomonas aeruginosa; Pseudomonas aeruginosa, isolate 5—K1651, read-out: MIC",4 µg/mL
same,MIC,"Pseudomonas aeruginosa; Pseudomonas aeruginosa, isolate 6—K1649, read-out: MIC",4 µg/mL
same,MIC,"Pseudomonas aeruginosa; Pseudomonas aeruginosa, isolate 7—K1564, read-out: MIC",8 µg/mL
same,MIC,"Pseudomonas aeruginosa; Pseudomonas aeruginosa, isolate 8—K1636, read-out: MIC",0.5 µg/mL
same,MIC,"Pseudomonas aeruginosa; Pseudomonas aeruginosa, isolate 9—K1634, read-out: MIC",2 µg/mL
same,MIC,"Pseudomonas aeruginosa; Pseudomonas aeruginosa, isolate 10—K1633, read-out: MIC",4 µg/mL
same,MIC,"Pseudomonas aeruginosa; Pseudomonas aeruginosa, isolate 11—K1632, read-out: MIC",4 µg/mL
same,MIC,"Pseudomonas aeruginosa; Pseudomonas aeruginosa, isolate 12—K1631, read-out: MIC",8 µg/mL
same,MIC,"Pseudomonas aeruginosa; Pseudomonas aeruginosa, isolate 13—K1629, read-out: MIC",4 µg/mL
same,MIC,"Pseudomonas aeruginosa; Pseudomonas aeruginosa, isolate 14—K1627, read-out: MIC",2 µg/mL
same,MIC,"Pseudomonas aeruginosa; Pseudomonas aeruginosa, isolate 15—K1626, read-out: MIC",8 µg/mL
same,MIC,"Pseudomonas aeruginosa; Pseudomonas aeruginosa, isolate 16—K1625, read-out: MIC",4 µg/mL
same,MIC,"Pseudomonas aeruginosa; Pseudomonas aeruginosa, isolate 17—K1562, read-out: MIC",4 µg/mL
same,MIC,"Pseudomonas aeruginosa; Pseudomonas aeruginosa, isolate 18—K1613, read-out: MIC",4 µg/mL
same,MIC,"Pseudomonas aeruginosa; Pseudomonas aeruginosa, isolate 19—K1553, read-out: MIC",2 µg/mL
same,MIC,"Pseudomonas aeruginosa; Pseudomonas aeruginosa, isolate 20—K1594, read-out: MIC",2 µg/mL
same,MIC,"Pseudomonas aeruginosa; Pseudomonas aeruginosa, isolate 21—K1588, read-out: MIC",4 µg/mL
same,MIC,"Pseudomonas aeruginosa; Pseudomonas aeruginosa, isolate 22—K1554, read-out: MIC",4 µg/mL
same,MIC,"Pseudomonas aeruginosa; Pseudomonas aeruginosa, isolate 23—K1580, read-out: MIC",2 µg/mL
same,MIC,"Pseudomonas aeruginosa; Pseudomonas aeruginosa, isolate 24—K1577, read-out: MIC",2 µg/mL
same,MIC,"Pseudomonas aeruginosa; Pseudomonas aeruginosa, isolate 25—K1576, read-out: MIC",4 µg/mL
same,MIC,"Pseudomonas aeruginosa; Pseudomonas aeruginosa, n=25 per group, read-out: Median MIC",4 µg/mL
same,MIC50,"Pseudomonas aeruginosa; Pseudomonas aeruginosa, 25 isolates, Summary of Results, read-out: MIC50",4 µg/mL
same,MIC90,"Pseudomonas aeruginosa; Pseudomonas aeruginosa, 25 isolates, Summary of Results, read-out: MIC90",4 µg/mL
same,MIC,"Pseudomonas aeruginosa; Pseudomonas aeruginosa, 25 isolates, Summary of Results, read-out: Median MIC",4 µg/mL
same,MIC50,Pseudomonas aeruginosa; n=25 per group,4 µg/mL
same,MIC90,Pseudomonas aeruginosa; n=25 per group,4 µg/mL
same,Range of MICs,Pseudomonas aeruginosa; n=25 per group,0.5 to 8 µg/mL
same,Decrease of activity by addition of 2% lysed horse red blood cells to Mueller-Hinton broth,S. aureus ATCC 27660; [1],approximately 4 fold
same,Decrease of activity by use of HTM broth,S. aureus ATCC 27660; [1],approximately 8 fold
same,MIC,"S. aureus ATCC 27660; Control Bacteria Set #1, run with Haemophilus influenzae MIC test, read-out: MIC",4 µg/mL
same,MIC,S. aureus ATCC 27660; S. aureus ATCC 27660,0.098 µg/mL
same,MIC,"S. aureus ATCC 27660; S. aureus ATCC 27660, Control for MIC Test SA-FQR, first batch",1 µg/mL
same,MIC,"S. aureus ATCC 27660; S. aureus ATCC 27660, Control for MIC Test SA-FQS, first batch",2 µg/mL
same,MIC,"S. aureus ATCC 27660; S. aureus ATCC 27660, new batches, Control Only 1",0.25 µg/mL
same,MIC,"S. aureus ATCC 27660; S. aureus ATCC 27660, new batches, Control Only 2",0.25 µg/mL
same,MIC,"S. aureus ATCC 27660; S. aureus ATCC 27660, new batches, Control Only 3",0.25 µg/mL
same,MIC,"S. aureus ATCC 27660; S. aureus ATCC 27660, new batches, Control Only 4",0.5 µg/mL
same,MIC,"S. aureus ATCC 27660; Staphylococcus aureus, ATCC27660, Control Bacteria Set #1, run with Moraxella MIC test, read-out: MIC",1 µg/mL
same,MIC,"S. aureus ATCC 27660; Staphylococcus aureus, ATCC27660, Control Only 1, read-out: MIC of control bacteria on day of MIC testing",0.25 µg/mL
same,MIC,"S. aureus ATCC 27660; Staphylococcus aureus, ATCC27660, Control Only 2, read-out: MIC of control bacteria on day of MIC testing",0.25 µg/mL
same,MIC,"S. aureus ATCC 27660; Staphylococcus aureus, ATCC27660, Control Only 3, read-out: MIC of control bacteria on day of MIC testing",0.25 µg/mL
same,MIC,"S. aureus ATCC 27660; Staphylococcus aureus, ATCC27660, Control Only 4, read-out: MIC of control bacteria on day of MIC testing",0.5 µg/mL
same,MIC,"S. aureus ATCC 27660; Staphylococcus aureus, ATCC27660, S. aureus ATCC 27660, Control Bacteria Set #1 (same conditions as test isolates), run with Streptococcus pneumoniae MIC test, read-out: MIC",1 µg/mL
same,MIC,"S. aureus ATCC 27660; Staphylococcus aureus, ATCC27660, S. aureus ATCC 27660, Control Bacteria Set #1 (same conditions as test isolates), run with Streptococcus viridans group MIC test, read-out: MIC",2 µg/mL
same,MIC,"S. aureus ATCC 27660; Staphylococcus aureus, ATCC27660, S. aureus ATCC 27660, Control Bacteria Set #2 (Mueller-Hinton Broth), run with Streptococcus pneumoniae MIC test, read-out: MIC",0.25 µg/mL
same,MIC,"S. aureus ATCC 27660; Staphylococcus aureus, ATCC27660, S. aureus ATCC 27660, Control Bacteria Set #2 (Mueller-Hinton Broth), run with Streptococcus viridans group MIC test, read-out: MIC",1 µg/mL
same,MIC,"S. aureus ATCC 27660; Staphylococcus aureus, ATCC27660, S. aureus ATCC 27660, control bacteria run with Pseudomonas aeruginosa MIC test, read-out: MIC",0.5 µg/mL
same,MIC,"S. aureus ATCC 27660; Staphylococcus aureus, ATCC27660, S. aureus ATCC 27660, control bacteria run with S. aureus fluoroquinolone-resistant MIC test, read-out: MIC",1 µg/mL
same,MIC,"S. aureus ATCC 27660; Staphylococcus aureus, ATCC27660, S. aureus ATCC 27660, control bacteria run with S. aureus fluoroquinolone-susceptible MIC test, read-out: MIC",2 µg/mL
same,MIC,"S. aureus ATCC 27660; Staphylococcus aureus, ATCC27660, S. aureus ATCC 27660, control bacteria run with S. epidermidis fluoroquinolone-resistant MIC test, read-out: MIC",0.25 µg/mL
same,MIC,"S. aureus ATCC 27660; Staphylococcus aureus, ATCC27660, S. aureus ATCC 27660, control bacteria run with S. epidermidis fluoroquinolone-susceptible MIC test, read-out: MIC",0.25 µg/mL
same,MIC,"S. aureus ATCC 27660; Staphylococcus aureus, ATCC27660, S. aureus ATCC 27660, control bacteria run with Serratia marcescens MIC test, read-out: MIC",0.25 µg/mL
same,MIC,"S. aureus ATCC 27660; Staphylococcus aureus, ATCC27660, S. aureus ATCC 27660, MIC previously obtained (target MIC), printed in parentheses, read-out: MIC for Control Bacteria within the parentheses",0.098 µg/mL
same,MIC,"S. aureus ATCC 27660; Staphylococcus aureus, ATCC27660, S. aureus ATCC27660, read-out: MIC",0.098 µg/mL
same,MIC,"S. aureus ATCC 27660; Staphylococcus aureus, ATCC27660, control for MIC test HI (Control Bacteria Set #2), read-out: MIC of control bacteria on day of MIC testing",0.5 µg/mL
same,MIC,"S. aureus ATCC 27660; Staphylococcus aureus, ATCC27660, control for MIC test MS (Control Bacteria Set #2), read-out: MIC of control bacteria on day of MIC testing",0.5 µg/mL
same,MIC,"S. aureus ATCC 27660; Staphylococcus aureus, ATCC27660, control for MIC test PA, read-out: MIC of control bacteria on day of MIC testing",0.5 µg/mL
same,MIC,"S. aureus ATCC 27660; Staphylococcus aureus, ATCC27660, control for MIC test SA-FQR, read-out: MIC of control bacteria on day of MIC testing",1 µg/mL
same,MIC,"S. aureus ATCC 27660; Staphylococcus aureus, ATCC27660, control for MIC test SA-FQS, read-out: MIC of control bacteria on day of MIC testing",2 µg/mL
same,MIC,"S. aureus ATCC 27660; Staphylococcus aureus, ATCC27660, control for MIC test SE-FQR, read-out: MIC of control bacteria on day of MIC testing",0.25 µg/mL
same,MIC,"S. aureus ATCC 27660; Staphylococcus aureus, ATCC27660, control for MIC test SE-FQS, read-out: MIC of control bacteria on day of MIC testing",0.25 µg/mL
same,MIC,"S. aureus ATCC 27660; Staphylococcus aureus, ATCC27660, control for MIC test SM, read-out: MIC of control bacteria on day of MIC testing",0.25 µg/mL
same,MIC,"S. aureus ATCC 27660; Staphylococcus aureus, ATCC27660, control for MIC test SP, read-out: MIC of control bacteria on day of MIC testing",0.25 µg/mL
same,MIC,"S. aureus ATCC 27660; Staphylococcus aureus, ATCC27660, control for MIC test SV, read-out: MIC of control bacteria on day of MIC testing",1 µg/mL
same,MIC,"S. aureus ATCC 27660; Staphylococcus aureus, ATCC27660, reference MIC printed in parentheses beside the day's control value, read-out: MIC for Control Bacteria (within the parentheses)",0.098 µg/mL
